# Organism: Rattus norvegicus
# Assay: Open TG-GATES - Regimen: Daily Repeat
# Format: toxicity, organism-based, Sprague-Dawley
# Design: regimen Daily Repeat, gender Male, age 6 weeks
# Conditions: in vivo, po, 10 mg/kg, route gavage, dose level Low; for APTT / Bas / Eos / Fbg / Hb / Ht / Lym / MCH / MCHC / MCV / Mono / Neu / PT / Plat / RBC / Ret / WBC: tissue Blood; for KIDNEY_L / KIDNEY_R / KIDNEY_TOTAL: tissue Kidney; for LIVER: tissue Liver; for A/G / ALP / ALT / AST / BUN / CRE / Ca / Cl / DBIL / GLC / IP / K / LDH / Na / PL / RALB / TBIL / TC / TG / TP / gamma-GTP: tissue Plasma
smiles,measurement,setting,value
OCCOCCN1CCN(C(c2ccccc2)c2ccc(Cl)cc2)CC1 (configuration not stated) [HYDROXYZINE],TERMINAL_BW,"72 h, time 3 day",228.1 g
same,APTT,"72 h, time 3 day",16.3 s
same,Bas,"72 h, time 3 day",0%
same,Eos,"72 h, time 3 day",1%
same,Fbg,"72 h, time 3 day",261.4 mg/dL
same,Hb,"72 h, time 3 day",13 g/dL
same,Ht,"72 h, time 3 day",39.4%
same,Lym,"72 h, time 3 day",75.6%
same,MCH,"72 h, time 3 day",21.8 pg
same,MCHC,"72 h, time 3 day",33%
same,MCV,"72 h, time 3 day",65.9 fL
same,Mono,"72 h, time 3 day",2.6%
same,Neu,"72 h, time 3 day",20.2%
same,PT,"72 h, time 3 day",16 s
same,Plat,"72 h, time 3 day",110.5 x10_4/uL
same,RBC,"72 h, time 3 day",598 x10_4/ul
same,Ret,"72 h, time 3 day",7.3%
same,WBC,"72 h, time 3 day",96.2 x10_2/uL
same,KIDNEY_L,"72 h, time 3 day",1 g
same,KIDNEY_R,"72 h, time 3 day",1 g
same,KIDNEY_TOTAL,"72 h, time 3 day",2 g
same,LIVER,"72 h, time 3 day",10.8 g
same,A/G,"72 h, time 3 day",0.8
same,ALP,"72 h, time 3 day",1662 IU/L
same,ALT,"72 h, time 3 day",51.2 IU/L
same,AST,"72 h, time 3 day",82.4 IU/L
same,BUN,"72 h, time 3 day",16.2 mg/dL
same,CRE,"72 h, time 3 day",0.2 mg/dL
same,Ca,"72 h, time 3 day",10.8 mg/dL
same,Cl,"72 h, time 3 day",105.6 meq/L
same,DBIL,"72 h, time 3 day",0.018 mg/dL
same,GLC,"72 h, time 3 day",182 mg/dL
same,IP,"72 h, time 3 day",7.7 mg/dL
same,K,"72 h, time 3 day",4 meq/L
same,LDH,"72 h, time 3 day",98.8 IU/L
same,Na,"72 h, time 3 day",142.8 meq/L
same,PL,"72 h, time 3 day",139 mg/dL
same,RALB,"72 h, time 3 day",2.6 g/dL
same,TBIL,"72 h, time 3 day",0.054 mg/dL
same,TC,"72 h, time 3 day",71.6 mg/dL
same,TG,"72 h, time 3 day",76 mg/dL
same,TP,"72 h, time 3 day",5.6 g/dL
same,gamma-GTP,"72 h, time 3 day",0.8 IU/L
same,TERMINAL_BW,"[…], time 7 day",259.3 g
same,TERMINAL_BW,"[…], time 14 day",323.3 g
same,TERMINAL_BW,"[…], time 28 day",416.4 g
same,APTT,"[…], time 7 day",17 s
same,Bas,"[…], time 7 day",0%
same,Eos,"[…], time 7 day",1%
same,Fbg,"[…], time 7 day",263 mg/dL
same,Hb,"[…], time 7 day",13.8 g/dL
same,Ht,"[…], time 7 day",41.3%
same,Lym,"[…], time 7 day",80.6%
same,MCH,"[…], time 7 day",21.5 pg
same,MCHC,"[…], time 7 day",33.5%
same,MCV,"[…], time 7 day",64.4 fL
same,Mono,"[…], time 7 day",1.8%
same,Neu,"[…], time 7 day",16.2%
same,PT,"[…], time 7 day",15.7 s
same,Plat,"[…], time 7 day",117.5 x10_4/uL
same,RBC,"[…], time 7 day",643 x10_4/ul
same,Ret,"[…], time 7 day",5.9%
same,WBC,"[…], time 7 day",88.4 x10_2/uL
same,APTT,"[…], time 14 day",18.1 s
same,Bas,"[…], time 14 day",0%
same,Eos,"[…], time 14 day",0.8%
same,Fbg,"[…], time 14 day",266.4 mg/dL
same,Hb,"[…], time 14 day",14.2 g/dL
same,Ht,"[…], time 14 day",41.7%
same,Lym,"[…], time 14 day",81.2%
same,MCH,"[…], time 14 day",20.7 pg
same,MCHC,"[…], time 14 day",34%
same,MCV,"[…], time 14 day",60.9 fL
same,Mono,"[…], time 14 day",2.4%
same,Neu,"[…], time 14 day",15%
same,PT,"[…], time 14 day",15.7 s
same,Plat,"[…], time 14 day",111 x10_4/uL
same,RBC,"[…], time 14 day",685.8 x10_4/ul
same,Ret,"[…], time 14 day",4.3%
same,WBC,"[…], time 14 day",106.7 x10_2/uL
same,APTT,"[…], time 28 day",18.3 s
same,Bas,"[…], time 28 day",0%
same,Eos,"[…], time 28 day",1%
same,Fbg,"[…], time 28 day",297.2 mg/dL
same,Hb,"[…], time 28 day",15.4 g/dL
same,Ht,"[…], time 28 day",43.7%
same,Lym,"[…], time 28 day",80.4%
same,MCH,"[…], time 28 day",20.6 pg
same,MCHC,"[…], time 28 day",35.2%
same,MCV,"[…], time 28 day",58.4 fL
same,Mono,"[…], time 28 day",2%
same,Neu,"[…], time 28 day",15%
same,PT,"[…], time 28 day",15.9 s
same,Plat,"[…], time 28 day",90.9 x10_4/uL
same,RBC,"[…], time 28 day",748.8 x10_4/ul
same,Ret,"[…], time 28 day",2.6%
same,WBC,"[…], time 28 day",105.9 x10_2/uL
same,KIDNEY_L,"[…], time 7 day",1.1 g
same,KIDNEY_R,"[…], time 7 day",1.1 g
same,KIDNEY_TOTAL,"[…], time 7 day",2.1 g
same,KIDNEY_L,"[…], time 14 day",1.3 g
same,KIDNEY_R,"[…], time 14 day",1.3 g
same,KIDNEY_TOTAL,"[…], time 14 day",2.7 g
same,KIDNEY_L,"[…], time 28 day",1.4 g
same,KIDNEY_R,"[…], time 28 day",1.4 g
same,KIDNEY_TOTAL,"[…], time 28 day",2.8 g
same,LIVER,"[…], time 7 day",12.6 g
same,LIVER,"[…], time 14 day",14.7 g
same,LIVER,"[…], time 28 day",16.8 g
same,A/G,"[…], time 7 day",0.9
same,ALP,"[…], time 7 day",1602.2 IU/L
same,ALT,"[…], time 7 day",41 IU/L
same,AST,"[…], time 7 day",65.8 IU/L
same,BUN,"[…], time 7 day",17.4 mg/dL
same,CRE,"[…], time 7 day",0.2 mg/dL
same,Ca,"[…], time 7 day",11.1 mg/dL
same,Cl,"[…], time 7 day",106 meq/L
same,DBIL,"[…], time 7 day",0.018 mg/dL
same,GLC,"[…], time 7 day",189 mg/dL
same,IP,"[…], time 7 day",7.2 mg/dL
same,K,"[…], time 7 day",4.3 meq/L
same,LDH,"[…], time 7 day",66.2 IU/L
same,Na,"[…], time 7 day",142.6 meq/L
same,PL,"[…], time 7 day",158.2 mg/dL
same,RALB,"[…], time 7 day",2.7 g/dL
same,TBIL,"[…], time 7 day",0.052 mg/dL
same,TC,"[…], time 7 day",72.6 mg/dL
same,TG,"[…], time 7 day",118.4 mg/dL
same,TP,"[…], time 7 day",5.9 g/dL
same,gamma-GTP,"[…], time 7 day",0.8 IU/L
same,A/G,"[…], time 14 day",0.8
same,ALP,"[…], time 14 day",1484.2 IU/L
same,ALT,"[…], time 14 day",40.8 IU/L
same,AST,"[…], time 14 day",67.2 IU/L
same,BUN,"[…], time 14 day",15.4 mg/dL
same,CRE,"[…], time 14 day",0.2 mg/dL
same,Ca,"[…], time 14 day",10.6 mg/dL
same,Cl,"[…], time 14 day",103.6 meq/L
same,DBIL,"[…], time 14 day",0.016 mg/dL
same,GLC,"[…], time 14 day",184.6 mg/dL
same,IP,"[…], time 14 day",7.3 mg/dL
same,K,"[…], time 14 day",4 meq/L
same,LDH,"[…], time 14 day",86.2 IU/L
same,Na,"[…], time 14 day",141.6 meq/L
same,PL,"[…], time 14 day",163 mg/dL
same,RALB,"[…], time 14 day",2.7 g/dL
same,TBIL,"[…], time 14 day",0.052 mg/dL
same,TC,"[…], time 14 day",74.8 mg/dL
same,TG,"[…], time 14 day",142.4 mg/dL
same,TP,"[…], time 14 day",6 g/dL
same,gamma-GTP,"[…], time 14 day",0.6 IU/L
same,A/G,"[…], time 28 day",0.8
same,ALP,"[…], time 28 day",1346.6 IU/L
same,ALT,"[…], time 28 day",41.4 IU/L
same,AST,"[…], time 28 day",69.6 IU/L
same,BUN,"[…], time 28 day",17.4 mg/dL
same,CRE,"[…], time 28 day",0.2 mg/dL
same,Ca,"[…], time 28 day",10.6 mg/dL
same,Cl,"[…], time 28 day",105 meq/L
same,DBIL,"[…], time 28 day",0.012 mg/dL
same,GLC,"[…], time 28 day",196.8 mg/dL
same,IP,"[…], time 28 day",6.8 mg/dL
same,K,"[…], time 28 day",4 meq/L
same,LDH,"[…], time 28 day",100.8 IU/L
same,Na,"[…], time 28 day",142.6 meq/L
same,PL,"[…], time 28 day",154.8 mg/dL
same,RALB,"[…], time 28 day",2.8 g/dL
same,TBIL,"[…], time 28 day",0.05 mg/dL
same,TC,"[…], time 28 day",76.8 mg/dL
same,TG,"[…], time 28 day",113.4 mg/dL
same,TP,"[…], time 28 day",6.3 g/dL
same,gamma-GTP,"[…], time 28 day",0.8 IU/L

# Source: ChEMBL document CHEMBL3885861, “Open TG-GATES”
